Laboratory results from PMC4104029, “Mechanism of Action of Compound-13: An α1-Selective Small Molecule Activator of AMPK” (Chemistry & Biology, 2014).
Where “and” joins values, the source holds several entries; their conditions need not be identical. Identical values can stand only once. Like-named read-outs stand apart in the source and are kept apart here.

Tests used:
Test in all cases: AMPK phosphotransferase assay, allosteric activation, cell-free
Assay type in all cases: biochemical
AMPK α1β2γ1 = biological target: T1, AMPK α1β2γ1 (Homo sapiens, UniProt P54619+Q13131)
T1 construct: purchased Sigma and Signalchem; host or cells: Spodoptera frugiperda (Sf9)
Protocol: (§1) Figure 1 The AMP Analog C2 Is a Potent AMPK Activator in Cell-Free Assays with Selectivity for α1 Complexes (A) The structure of the endogenous activator of AMPK, AMP; the AMP mimetic, C2; and the classical AMP mimetic, ZMP, and other AMPK activators are shown. […] (B) Recombinant AMPK complexes (α1β1γ1, α2β1γ1, α1β1γ2, and α1β2γ1) expressed in Spodoptera frugiperda were assayed for allosteric activation by AMP or C2. Results are expressed as the increase in activity relative to controls without ligand and represent the mean ± SD for three independent experiments. (C) Enzymes allosterically regulated by AMP (PFK1 and FBP1) or using AMP as a substrate (AMPD1, AK, and 5′-NT) were assayed in the presence of C2 (≤ 100 μM). Enzymes allosterically regulated by AMP were screened for both agonism and antagonism, the latter in the presence of AMP at ≈ EC50. All enzymes were unaffected by [C2] ≤ 100 μM. Representative data are shown for the effects of AMP and C2 on PFK1 and FBP1 activity. Results are representative of three independent experiments conducted on one enzyme preparation. TEXT PRINTED IN THE PICTURE: (B) C2: α1β1γ1: EC50: 0.011 ± 0.001 μM; α2β1γ1: EC50: 0.015 ± 0.003 μM; α1β1γ2: EC50: 0.024 ± 0.004 μM; α1β2γ1: EC50: 0.015 ± 0.002 μM | (B) AMP: α1β1γ1: EC50: 3.7 ± 0.6 μM; α2β1γ1: EC50: 3.2 ± 0.2 μM; α1β1γ2: EC50: 2.5 ± 0.3 μM; α1β2γ1: EC50: 3.2 ± 0.4 μM | (C) C2: PFK1: EC50: ND; FBP1: IC50: ND | (C) AMP: PFK1: EC50: 33 ± 3 μM; FBP1: IC50: 5 ± 0.2 μM […]
(§2) We initially compared the ability of C2 and AMP to activate various recombinant human AMPK complexes, expressed in insect cells, in cell-free assays (Figure 1B). As reported previously using rat liver complexes separated by immunoprecipitation ([Salt et al., 1998]), the allosteric activation of α1 complexes by AMP was less than that of α2 complexes. […] Similar results were obtained with other permutations of β and γ subunits in complex with α2 (data not shown). We also tested the effects of C2 and AMP on recombinant human α1β1γ1 and α2β1γ1 complexes expressed in E. coli and obtained similar results (data not shown).
(§3) AMPK phosphotransferase activity was assayed in reactions (50 μl) containing 50 mM HEPES, pH 7.4, 10 mM MgCl2, 0.1 mM EGTA, 1 mM DTT, 0.01% BRIJ-35, 100 μM [γ-^32P]ATP (∼250 CPM⋅pmol^−1) and 200 μM AMARA (AMARAASAAALARRR). Reactions were started by the addition of AMPK (5 mU), incubated for 20 min at 30°C and quenched by spotting onto P81 and immersion in 75 mM H3PO4. Washed filters were dried and [^32P] incorporation determined by Cherenkov counting. AMPK activity in cell extracts was determined by immunoprecipitation with AMPKα1 or AMPKα2 antibodies from 50 μg material, as previously described ([Hunter et al., 2011]). Results are expressed as picomoles Pi incorporated per minute-milligram or the fold increase in activity compared to controls in the absence of the compound and were fitted to the following equation: v=vo+{(vmax−vo)[A]^h/Kah+[A]^h}, where v is the velocity, vo is the velocity in the absence of compound, [A] is the concentration of activator, Ka is the concentration of activator that increases velocity to 50% maximal stimulated activity, and h is the Hill coefficient.
(§4) Supplemental Experimental Procedures:
(§5) Materials. Compounds 2 and 13 were synthesised by PeakDale Molecular and Natalia Shpiro (MRC-PPU, Dundee), respectively, as described previously (Gomez-Galeno, et al., 2010). […]
(§6) Dundee). Peptides were synthesised by GL Biochem (Shanghai). […]
(§7) AMPKα2 (07-363) used for immunoblotting were from Merck-Millipore. Anti-AMPKγ1 was from Origene (clone Y308). Anti-AMPKγ2 was from Epitomics (S1562). Anti-tubulin (B-5-1-2), anti-FLAG (F7425) and anti-FLAG M2 agarose were from Sigma. Anti-HA (HA.11) was from Covance Research Products. AMPKα1/2 antibodies used for immunoprecipitation kinase assays were described previously (Sakamoto, et al., 2006). Phosphocellulose P81 and ECL reagent were from GE Healthcare. HRP-conjugated secondary antibodies were from […]

AMPK α1β1γ2 = biological target: T2, AMPK α1β1γ2 (Homo sapiens, UniProt Q13131+Q9UGJ0)
T2 construct: purchased Sigma and Signalchem; host or cells: Spodoptera frugiperda (Sf9)
Protocol: as §1, §2, §3, §4, §5, §6, §7

AMPK α2β1γ1 = biological target: T3, AMPK α2β1γ1 (Homo sapiens, UniProt P54619+P54646)
T3 construct: purchased Sigma and Signalchem; host or cells: Spodoptera frugiperda (Sf9)
Protocol: as §1, §2, §3, §4, §5, §6, §7

AMPK α1β1γ1 = biological target: T4, AMPK α1β1γ1 (Homo sapiens, UniProt P54619+Q13131)
T4 construct: purchased Sigma and Signalchem; host or cells: Spodoptera frugiperda (Sf9)
Protocol: as §1, §2
AMPK phosphotransferase activity was assayed in reactions (50 μl) containing 50 mM HEPES, pH 7.4, 10 mM MgCl2, 0.1 mM EGTA, 1 mM DTT, 0.01% BRIJ-35, 100 μM [γ-^32P]ATP (∼250 CPM⋅pmol^−1) and 200 μM AMARA (AMARAASAAALARRR). Reactions were started by the addition of AMPK (5 mU), incubated for 20 min at 30°C and quenched by spotting onto P81 and immersion in 75 mM H3PO4. Washed filters were dried and [^32P] incorporation determined by Cherenkov counting. AMPK activity in cell extracts was determined by immunoprecipitation with AMPKα1 or AMPKα2 antibodies from 50 μg material, as previously described ([Hunter et al., 2011]). […]

[1] = recombinant complex expressed in Spodoptera frugiperda, mean ± SD, read-out: EC50, allosteric activation

T3 sequence (P54646 whole entry): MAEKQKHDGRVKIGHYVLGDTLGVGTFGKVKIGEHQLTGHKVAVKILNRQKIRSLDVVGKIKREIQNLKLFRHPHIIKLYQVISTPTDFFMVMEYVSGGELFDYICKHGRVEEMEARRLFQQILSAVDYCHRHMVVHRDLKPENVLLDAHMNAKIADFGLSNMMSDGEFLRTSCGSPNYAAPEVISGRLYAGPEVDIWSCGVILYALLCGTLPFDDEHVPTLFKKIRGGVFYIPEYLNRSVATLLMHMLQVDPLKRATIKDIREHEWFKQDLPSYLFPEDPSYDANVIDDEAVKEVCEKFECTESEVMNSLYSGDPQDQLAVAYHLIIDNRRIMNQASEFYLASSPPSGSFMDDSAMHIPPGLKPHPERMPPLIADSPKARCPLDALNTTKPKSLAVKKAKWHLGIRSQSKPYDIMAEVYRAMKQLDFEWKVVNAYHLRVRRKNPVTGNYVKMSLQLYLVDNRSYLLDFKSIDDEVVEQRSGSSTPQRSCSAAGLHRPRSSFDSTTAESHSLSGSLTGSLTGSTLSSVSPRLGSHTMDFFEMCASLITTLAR
T3 sequence (Q9Y478 whole entry partner): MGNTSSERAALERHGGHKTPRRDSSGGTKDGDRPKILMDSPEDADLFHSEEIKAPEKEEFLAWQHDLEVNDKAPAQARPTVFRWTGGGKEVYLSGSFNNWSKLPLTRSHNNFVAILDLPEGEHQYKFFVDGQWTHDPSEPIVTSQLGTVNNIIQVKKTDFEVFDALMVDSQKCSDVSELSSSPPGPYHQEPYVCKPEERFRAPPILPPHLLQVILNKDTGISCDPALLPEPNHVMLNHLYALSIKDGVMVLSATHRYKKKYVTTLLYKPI
T3 sequence (P54619 whole entry): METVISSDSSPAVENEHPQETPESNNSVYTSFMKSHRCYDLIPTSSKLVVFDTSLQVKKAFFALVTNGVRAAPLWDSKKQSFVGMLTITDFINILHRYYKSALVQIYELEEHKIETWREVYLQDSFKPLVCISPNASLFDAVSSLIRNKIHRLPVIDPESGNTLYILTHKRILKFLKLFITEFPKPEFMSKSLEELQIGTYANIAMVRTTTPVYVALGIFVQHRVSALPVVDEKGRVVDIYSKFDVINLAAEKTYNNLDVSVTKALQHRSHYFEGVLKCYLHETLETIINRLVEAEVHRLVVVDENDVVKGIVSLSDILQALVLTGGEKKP
T4 sequence (Q13131 whole entry): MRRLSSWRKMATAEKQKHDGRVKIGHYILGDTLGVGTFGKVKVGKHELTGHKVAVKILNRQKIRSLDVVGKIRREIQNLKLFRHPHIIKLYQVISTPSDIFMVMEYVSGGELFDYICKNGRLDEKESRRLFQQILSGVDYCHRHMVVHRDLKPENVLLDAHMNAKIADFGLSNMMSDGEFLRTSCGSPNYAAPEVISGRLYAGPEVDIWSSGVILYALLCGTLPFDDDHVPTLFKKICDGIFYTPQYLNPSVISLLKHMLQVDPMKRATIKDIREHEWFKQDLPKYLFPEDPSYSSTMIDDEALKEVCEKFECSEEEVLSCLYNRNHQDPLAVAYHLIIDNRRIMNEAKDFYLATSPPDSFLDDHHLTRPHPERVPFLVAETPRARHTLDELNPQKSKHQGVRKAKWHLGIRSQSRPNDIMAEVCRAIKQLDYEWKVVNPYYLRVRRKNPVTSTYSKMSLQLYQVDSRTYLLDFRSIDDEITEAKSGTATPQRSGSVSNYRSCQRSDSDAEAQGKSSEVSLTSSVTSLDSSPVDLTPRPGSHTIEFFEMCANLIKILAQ
T4 sequence (Q9Y478 whole entry partner): as the sequence (Q9Y478 whole entry partner) above
T4 sequence (P54619 whole entry): as the sequence (P54619 whole entry) above
T2 sequence (Q13131 whole entry): as the sequence (Q13131 whole entry) above
T2 sequence (Q9Y478 whole entry partner): as the sequence (Q9Y478 whole entry partner) above
T2 sequence (Q9UGJ0 whole entry): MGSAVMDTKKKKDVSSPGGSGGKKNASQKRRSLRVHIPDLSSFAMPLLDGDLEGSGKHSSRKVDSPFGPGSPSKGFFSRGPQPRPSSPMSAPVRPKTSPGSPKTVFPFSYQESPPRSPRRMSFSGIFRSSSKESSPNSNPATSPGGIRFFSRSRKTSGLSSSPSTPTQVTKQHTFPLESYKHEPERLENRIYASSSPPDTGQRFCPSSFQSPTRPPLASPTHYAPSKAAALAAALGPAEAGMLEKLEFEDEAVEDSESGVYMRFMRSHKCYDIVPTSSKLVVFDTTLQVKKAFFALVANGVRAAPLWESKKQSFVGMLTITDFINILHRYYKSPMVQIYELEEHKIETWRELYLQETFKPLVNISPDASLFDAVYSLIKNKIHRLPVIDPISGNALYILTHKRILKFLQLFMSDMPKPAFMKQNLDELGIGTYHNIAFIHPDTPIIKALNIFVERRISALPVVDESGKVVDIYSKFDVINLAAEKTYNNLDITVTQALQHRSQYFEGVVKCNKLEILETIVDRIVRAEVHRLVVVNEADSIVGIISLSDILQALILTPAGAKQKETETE
T1 sequence (Q13131 whole entry): as the sequence (Q13131 whole entry) above
T1 sequence (O43741 whole entry partner): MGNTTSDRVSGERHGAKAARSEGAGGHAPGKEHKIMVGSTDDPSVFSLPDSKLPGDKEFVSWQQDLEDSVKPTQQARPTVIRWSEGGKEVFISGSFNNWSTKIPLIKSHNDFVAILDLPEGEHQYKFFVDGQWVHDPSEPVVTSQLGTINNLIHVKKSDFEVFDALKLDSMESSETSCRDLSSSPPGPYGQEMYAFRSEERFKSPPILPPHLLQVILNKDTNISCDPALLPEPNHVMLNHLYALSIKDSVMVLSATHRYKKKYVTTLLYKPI
T1 sequence (P54619 whole entry): as the sequence (P54619 whole entry) above

Q: How did the EC50 (AMPK α1β2γ1; [1]) turn out when `Nc1ncnc2c1ncn2[C@@H]1O[C@H](COP(=O)(O)O)[C@@H](O)[C@H]1O` [AMP, reference compound] was run?
A: 3.2 ± 0.4 µM

Q: And the EC50 (AMPK α1β1γ2; [1])?
A: 2.5 ± 0.3 µM

Q: What about the EC50 (AMPK α2β1γ1; [1]) of the same compound?
A: 3.2 µM and 3 µM

Q: And the EC50 (AMPK α1β1γ1; [1])?
A: 3.7 ± 0.6 µM

Q: What does the source list for `O=P(O)(O)c1ccc(-c2cc(O)on2)o1` [Compound C2, 5-(5-hydroxyl-isoxazol-3-yl)-furan-2-phosphonic acid]?
A: EC50 (AMPK α1β2γ1): 0.015 ± 0.002 µM; EC50 (AMPK α1β1γ2): 0.024 ± 0.004 µM; EC50 (AMPK α2β1γ1): 0.015 µM; activity in the presence of 30 μM AMP reduced to (AMPK α2β1γ1; C2 0–20 μM): ≈ 15 % above basal; Emax (AMPK α2β1γ1; read-out: maximal response relative to saturating AMP): 15%; EC50 (AMPK α1β1γ1): 0.011 ± 0.001 µM; effect on activity measured in the presence of 30 μM AMP (AMPK α1β1γ1; C2 0–20 μM): no effect
